The text below walks through data of PMC8667043, “First-in-Class Inhibitors of the Ribosomal Oxygenase MINA53” (Journal of Medicinal Chemistry, 2021).

Bounds are passed on as bounds.

Assay [1] deals with NB4. Description: WST-1 cell proliferation assay. Conditions: Homo sapiens, NB-4; APL; WST-1, 48 h; read-out: IC50 antiproliferative effect, NB4. The format is cell-based. On the procedure:
(§1) The effect of compounds on cell proliferation of different leukemia and lymphoma cell lines OCI-AML3 (DSMZ ACC-582), IMS-M2 (a gift from Professor B. Falini, University of Perugia), OCI-AML2 (DSMZ, ACC-99), MV4–11 (ATCC, CRL-9591), Kasumi-1 (ATCC, CRL-2724), Karpass299 (DSMZ, ACC-31), U937 (ATCC, CRL1593.2), HL-60 (ATCC, CCL-240), and NB4 (DSMZ, ACC-207) was evaluated using the WST-1 assay (Roche Diagnostic GmbH Germany). The cells were plated, in triplicate, in 384-viewplate (Perkin Elmer) at a density of 5 × 10^3 cells/well in a final volume of 22.5 μL. The cells were incubated with increasing concentrations of compounds for 48 h at 37 °C, 5% CO2, then 2.5 μL of WST-1 reagent was added to each well for 1 h. For each cell line, dose–response curves were analyzed as nonlinear regression curves using GraphPad Prism (GraphPad Software Inc.) to obtain IC50 values.
On the technique in general: Tetrazolium dyes change colour on reduction, which living cells bring about.

Assay [2] has as its system Kasumi-1. Description: WST-1 cell proliferation assay. The format is cell-based. Conditions: Homo sapiens, AML, WST-1, 48 h, read-out: IC50 antiproliferative effect, Kasumi-1. The method, then:
as §1

The test system of assay [3] is OCI-AML2. As to the kind of experiment: WST-1 cell proliferation assay. The format is cell-based. As to conditions: Homo sapiens, AML, WST-1, 48 h, read-out: IC50 antiproliferative effect, OCI-AML2. The method, then: as §1
Assay [4] relates to MV4-11. As to the kind of experiment: WST-1 cell proliferation assay. The format is cell-based. As to conditions: Homo sapiens, AML, WST-1, 48 h, read-out: IC50 antiproliferative effect, MV4-11. On the procedure:
as §1

Assay [5] deals with IMS-M2. Description: WST-1 cell proliferation assay. Conditions: AML, WST-1, 48 h, read-out: IC50 antiproliferative effect, IMS-M2. In kind it is cell-based. The method, then:
as §1

Assay [6] deals with Karpass299. Description: WST-1 cell proliferation assay. The format is cell-based. Conditions: ALCL; WST-1, 48 h; read-out: IC50 antiproliferative effect, Karpass299. On the procedure:
as §1

In assay [7] the test system is HL-60. Description: WST-1 cell proliferation assay. The format is cell-based. As to conditions: Homo sapiens, APL, WST-1, 48 h, read-out: IC50 antiproliferative effect, HL-60. On the procedure: as §1
For assay [8], the system named is OCI-AML3. As to the kind of experiment: WST-1 cell proliferation assay. As to conditions: Homo sapiens, OCI-AML-3, WST-1, 48 h, read-out: IC50 antiproliferative effect, OCI-AML3. In kind it is cell-based. On the procedure: as §1
Assay [9] has as its system U937. As to the kind of experiment: WST-1 cell proliferation assay. The format is cell-based. Conditions: Homo sapiens, U-937; AML; WST-1, 48 h; read-out: IC50 antiproliferative effect, U937. On the procedure: as §1
Assay [10] relates to KDM5. Description: Immunofluorescence of histone methyl mark H3K4me3 in U-87MG cells. The format is cell-based, human. As to conditions: 50 μM, 48 h. On the procedure: (§2) For immunofluorescence (IF) analysis, 50 × 10^4 U-87MG cells were grown on sterile coverslips. Twenty-four hours after plating, the cells were treated with the different compounds (IOX-1 at 100 μM, GSK-J4 at 10 μM, CPI-455 at 25 μM, and both MINA53 inhibitors 9 and 10 at 50 μM) for 48 h. IF staining for different trimethylated lysine residues of histone H3 ([…]) were carried out on PFA-fixed cells blocked with 20% goat serum in PBS (1 h, RT) and incubated overnight at 4 °C with primary rabbit polyclonal antibodies against H3K4me3 (Cell Signaling, C42D8, 1:400), H3K9me3 (Cell Signaling, D4W1U, 1:400), and H3K27me3 (Cell Signaling, C36B11, 1:400). Primary antibodies were detected using rabbit anti-IgG secondary antibodies conjugated with either Cy3 (Jackson Immunoresearch 711-165-152). DNA was stained using 0.05 μg/mL 4′,6-diamidino-2-phenylindole (DAPI), and after washing, the coverslips were mounted in Vectashield mounting media. […]
(§3) For quantification of fluorescence intensity signals, images of untreated or treated cells were analyzed and processed using open-source Cell Profiler 4.1.3 image analysis software (https://cellprofiler.org/) to measure fluorescence-integrated intensity values for antibody-binding relating to individual cells. […]

Assay [11] relates to KDM6. As to the kind of experiment: Immunofluorescence of histone methyl mark H3K27me3 in U-87MG cells. In kind it is cell-based, human. As to conditions: 50 μM, 48 h. The method, then: as §2, §3
In assay [12] the test system is KDM4. Description: Immunofluorescence of histone methyl mark H3K9me3 in U-87MG cells. The format is cell-based, human. As to conditions: 50 μM, 48 h. On the procedure:
as §2, §3

The target of assay [13] is T1, HA-tagged NO66 (Homo sapiens, UniProt Q9H6W3).
T1 construct: expressed in transfected cells; host or cells: HEK293T (transient, pEF6 vector)
Description: Substrate trapping by anti-HA immunoprecipitation (RPL8). The format is cell-based. As to conditions: HEK293T cells; 100 μM, 18 h. The method, then: Proteins were transferred onto nitrocellulose or PVDF membranes and incubated with rabbit γ-H2AX (#9718, Cell Signaling Technologies, MA) anti-GAPDH (Sc47724, Santa Cruz Biotechnology, Santa Cruz, CA), rabbit anti-RPL27A (Abcam, ab74731), goat anti-RPL8 (Abcam, ab63941), horseradish peroxidase (HRP)-conjugated anti-HA (Roche, 12013819001), and HRP-conjugated anti-β-actin (Abcam, ab-49900).
For immunoprecipitation, the cells were harvested on ice and lysed by rotation for 1 h at 4 °C in JIES buffer. The cell debris was subsequently pelleted by centrifugation (10 min at 21 910g at 4 °C), and the supernatant was incubated overnight at 4 °C with Pierce anti-HA agarose beads (Thermo Scientific, 26181). The next day, the beads were washed 6 times with JIES buffer before the immunoprecipitates were eluted for 15 min at 1400 rpm at room temperature using 1 mg/mL HA peptide (Thermo Scientific, 26184) dissolved in JIES buffer. The eluted samples were then prepared in 1× Laemmli loading buffer (6x: 125 mM Tris-HCl [pH 6.8], 6% (w/v) SDS, 50% (v/v) glycerol, 225 mM dithiothreitol (DTT), and 0.1% (w/v) bromophenol blue) and boiled for 5 min for detection by western blot.
Plasmid DNA transfections were performed using a FuGENE 6 transfection reagent (Promega, E2691). […]

T1 sequence (Q9H6W3 whole entry): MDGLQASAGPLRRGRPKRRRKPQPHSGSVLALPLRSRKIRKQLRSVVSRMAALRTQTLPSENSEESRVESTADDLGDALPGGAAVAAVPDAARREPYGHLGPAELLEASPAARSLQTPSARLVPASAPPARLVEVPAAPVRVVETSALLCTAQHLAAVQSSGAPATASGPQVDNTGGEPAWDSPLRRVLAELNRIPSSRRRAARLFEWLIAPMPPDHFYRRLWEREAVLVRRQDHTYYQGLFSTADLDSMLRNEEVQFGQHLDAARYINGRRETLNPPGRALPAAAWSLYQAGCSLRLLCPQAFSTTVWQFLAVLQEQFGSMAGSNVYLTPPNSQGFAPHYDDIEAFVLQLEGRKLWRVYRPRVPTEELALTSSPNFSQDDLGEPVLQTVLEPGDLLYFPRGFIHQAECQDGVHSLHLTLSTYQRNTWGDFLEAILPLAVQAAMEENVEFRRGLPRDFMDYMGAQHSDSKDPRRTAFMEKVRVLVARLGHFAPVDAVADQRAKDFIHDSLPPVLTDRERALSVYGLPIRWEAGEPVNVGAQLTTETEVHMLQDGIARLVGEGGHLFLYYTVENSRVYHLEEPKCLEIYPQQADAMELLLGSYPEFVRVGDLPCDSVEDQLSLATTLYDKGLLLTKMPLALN

In general, IC50 refers to the concentration that inhibits the measured activity by half. As for `O=C(O)c1c[nH]c(=S)[nH]c1=O` [compound 1], the IC50 in assay [1], in assay [2], in assay [3], in assay [4], in assay [5] and in [6] was over 100 µM throughout. Further, the IC50 in [7], in assay [8] and in assay [9] was over 100 µM throughout.

On to `O=C(O)c1cnc(SCCc2ccccc2)[nH]c1=O` [compound 9, 2-(Phenethylthio)-3,4-dihydro-4-oxopyrimidine-5-carboxylic Acid], for which the IC50 is 91 ± 3 µM in assay [1]; over 100 µM in [2]; over 100 µM in assay [3]; over 100 µM in assay [4]; over 100 µM in assay [5]; over 100 µM in assay [6]. Moreover, the IC50 in assay [7] is 73 ± 3 µM; in assay [8], over 100 µM; in [9], over 100 µM. In addition, the “level of histone methyl mark H3K4me3 (KDM5 selectivity)” value in assay [10] is “did not observe any evidence for an increase”. In addition, the “level of histone methyl mark H3K27me3 (KDM6 selectivity)” value in assay [11] was “did not observe any evidence for an increase”. Also, in assay [12], the “level of histone methyl mark H3K9me3 (KDM4 selectivity)” value is “did not observe any evidence for an increase”. Moreover, in assay [13], the “trapping of RPL8 with HA-tagged NO66” value is reported as “did not observe evidence”.

In the case of `O=C(O)c1cnc(SCCCc2ccccc2)[nH]c1=O` [compound 10, 2-((3-Phenylpropyl)thio)-3,4-dihydro-4-oxopyrimidine-5-carboxylic Acid], the IC50 was 94 ± 4 µM in assay [1]; over 100 µM in [2]; over 100 µM in assay [3]; over 100 µM in assay [4]; over 100 µM in assay [5]; over 100 µM in assay [6]. Further, the IC50 in [7] is 14 ± 2 µM; in assay [8], over 100 µM; in [9] it was over 100 µM. Moreover, in assay [10], the “level of histone methyl mark H3K4me3 (KDM5 selectivity)” value is on record as “did not observe any evidence for an increase”. In addition, the “level of histone methyl mark H3K27me3 (KDM6 selectivity)” value in [11] is recorded as “did not observe any evidence for an increase”. In addition, the “level of histone methyl mark H3K9me3 (KDM4 selectivity)” value in assay [12] was “did not observe any evidence for an increase”. Moreover, the “trapping of RPL8 with HA-tagged NO66” value in assay [13] was “did not observe evidence”.
